Patent US9365576B2, “Pyrrolopyrrolidinone compounds” (Novartis AG, priority 2012, dated 2016)

Tests used:
Type in all cases: binding
[1] = biological target: human MDM4 protein (amino acids 2-185) (Homo sapiens (Human), UniProt O15151); experiment: TR-FRET assay, p53-MDM4 Assay 1; details: 2.5 nM MDM4-biotinylated, 10 nM Cy5-p53 peptide
Experimental: (§1) The inhibition of p53-MDM2 and p53-MDM4 interactions is measured by time resolved fluorescence energy transfer (TR-FRET). Fluorescence energy transfer (or Foerster resonance energy transfer) describes an energy transfer between donor and acceptor fluorescent molecules. For this assay, human MDM2 protein (amino acids 2-188) and human MDM4 protein (amino acids 2-185), tagged with a C-terminal biotin moiety, are used in combination with a Europium labeled streptavidin (Perkin Elmer, Inc., Waltham, Mass., USA) serving as the donor fluorophore. The p53 derived, Cy5 labeled peptide Cy5-TFSDLWKLL (p53 aa18-26) is the energy acceptor. Upon excitation of the donor molecule at 340 nm, binding interaction between MDM2 or MDM4 and the p53 peptide induces energy transfer and enhanced response at the acceptor emission wavelength at 665 nm. Disruption of the formation of the p53-MDM2 or p53-MDM4 complex due to an inhibitor molecule binding to the p53 binding site of MDM2 or MDM4 results in increased donor emission at 620 nm. The ratiometric FRET assay readout is calculated from the raw data of the two distinct fluorescence signals measured in time resolved mode (fluorescence 665 nm/fluorescence 620 nm×1000).
(§2) After addition of 1.25 nM MDM2-biotinylated or 2.5 nM MDM4-biotinylated (internal preparations), and 0.625 nM Europium labeled streptavidin (Perkin Elmer), the solution is pre-incubated for 15 minutes at room temperature, then 10 nM Cy5-p53 peptide (internal preparation) is added before an incubation at room temperature for 15 minutes prior to reading the plate. For measurement of samples, a Victor II microplate reader (Perkin Elmer) is used with the following settings: Excitation 340 nm, Emission Donor 620 nm and Emission Acceptor 665 nm. IC50 values are calculated by curve fitting using XLfit. If not specified, reagents are purchased from Sigma-Aldrich Chemie GmBH, Buchs, Switzerland.
(§3) This assay was used to evaluate compounds displaying inhibition of p53-MDM2 interaction and p53-MDM4 interaction at IC50s of 0.005 to 50 μM (p53-MDM2 Assay 1 and p53-MDM4 Assay 1, respectively). For selected compounds displaying IC50s between […] on MDM2, a slightly modified assay is used with the following adaptations: 0.1 nM MDM2, 0.1 nM Europium labeled streptavidin and Tecan genios Pro is used as a microplate reader for the fluorescence measurements (p53-MDM2 Assay 2).

[2] = biological target: T1, human MDM2 protein (amino acids 2-188) (Homo sapiens (Human), UniProt Q00987); experiment: TR-FRET assay, p53-MDM2 Assay 1; details: 1.25 nM MDM2-biotinylated, 10 nM Cy5-p53 peptide
Experimental: as §1, §2, §3

[3] = biological target: T1, human MDM2 protein (amino acids 2-188); experiment: TR-FRET assay, p53-MDM2 Assay 2 (modified); details: TR-FRET; 0.1 nM MDM2, 0.1 nM Europium labeled streptavidin, Tecan genios Pro reader; read-out: IC50 p53-MDM2 Assay 2
Summary of the method: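 IC50 values were curve-fitted from the time-resolved 665/620 nm emission ratio after 340 nm excitation. The assay combined 0.625 nM europium-streptavidin donor with 1.25 nM C-terminally biotinylated MDM2 2–188 (15 min, RT), followed by 15 min with 10 nM Cy5-labeled p53 18–26 acceptor peptide.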

Chain of human MDM4 protein (amino acids 2-185) (O15151 2-185): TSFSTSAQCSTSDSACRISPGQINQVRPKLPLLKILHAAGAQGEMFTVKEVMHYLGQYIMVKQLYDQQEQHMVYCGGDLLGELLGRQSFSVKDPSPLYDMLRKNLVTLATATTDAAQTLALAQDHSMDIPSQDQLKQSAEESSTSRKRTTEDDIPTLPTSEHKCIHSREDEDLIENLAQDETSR
T1 sequence (Q00987 2-188): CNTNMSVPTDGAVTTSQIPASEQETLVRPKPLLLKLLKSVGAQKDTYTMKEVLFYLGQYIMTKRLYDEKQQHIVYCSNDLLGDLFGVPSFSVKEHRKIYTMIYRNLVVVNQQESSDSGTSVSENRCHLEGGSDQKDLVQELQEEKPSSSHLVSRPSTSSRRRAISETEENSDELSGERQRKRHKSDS

In the case of COc1ccccc1-c1cc2c(n1C(C)C)C(c1ccc(Cl)cc1C)N(c1cccc(Cl)c1F)C2=O (stereo not shown) [Example 1, 5-(3-Chloro-2-fluoro-phenyl)-6-(4-chloro-2-methyl-phenyl)-1-isopropyl-2-(2-methoxy-phenyl)-5,6-dihydro-1H-pyrrolo[3,4-b]pyrrol-4-one], the IC50 [1] is reported as 27800 nM and the IC50 [2] is reported as 9.5 nM.
CNC(=O)c1ccc(OC)c(-c2cc3c(n2C(C)C)C(c2ccc(Cl)cc2C)N(c2cccc(Cl)c2F)C3=O)c1 (stereo not shown) [Example 2, 3-[5-(3-Chloro-2-fluoro-phenyl)-6-(4-chloro-2-methyl-phenyl)-1-isopropyl-4-oxo-1,4,5,6-tetrahydro-pyrrolo[3,4-b]pyrrol-2-yl]-4-methoxy-N-methyl-benzamide] gave an IC50 [1] of 2900 nM, an IC50 [2] of 2.9 nM and an IC50 [3] of 0.757 nM.
Compound COc1ccc(F)cc1-c1cc2c(n1C(C)C)C(c1ccc(Cl)cc1C)N(c1cccc(Cl)c1F)C2=O (stereo not shown) [Example 3, 5-(3-Chloro-2-fluoro-phenyl)-6-(4-chloro-2-methyl-phenyl)-2-(5-fluoro-2-methoxy-phenyl)-1-isopropyl-5,6-dihydro-1H-pyrrolo[3,4-b]pyrrol-4-one] has an IC50 [1] of 54200 nM and an IC50 [2] of 6 nM.
Work on CNC(=O)c1ccc(OC)c(-c2cc3c(n2C(C)C)[C@H](c2ccc(Cl)cc2C)N(c2cccc(Cl)c2F)C3=O)c1 [Example 7, 3-[(S)-5-(3-Chloro-2-fluoro-phenyl)-6-(4-chloro-2-methyl-phenyl)-1-isopropyl-4-oxo-1,4,5,6-tetrahydro-pyrrolo[3,4-b]pyrrol-2-yl]-4-methoxy-N-methyl-benzamide] yielded an IC50 [1] of 507 nM, an IC50 [2] of 0.6 nM and an IC50 [3] of 0.119 nM.
In the case of COc1ccccc1-c1cc2c(n1C(C)C)C(c1ccc(Cl)cc1)N(c1cc(Cl)ccc1C)C2=O (stereo not shown) [Example 9, 5-(5-Chloro-2-methyl-phenyl)-6-(4-chloro-phenyl)-1-isopropyl-2-(2-methoxy-phenyl)-5,6-dihydro-1H-pyrrolo[3,4-b]pyrrol-4-one], the IC50 [1] is reported as 4030 nM, the IC50 [2] is reported as 0.6 nM and the IC50 [3] is reported as 0.298 nM.
Work on CNC(=O)c1ccc(OC)c(-c2cc3c(n2C(C)C)C(c2ccc(Cl)cc2)N(c2cc(Cl)ccc2C)C3=O)c1 (stereo not shown) [Example 10, 3-[5-(5-Chloro-2-methyl-phenyl)-6-(4-chloro-phenyl)-1-isopropyl-4-oxo-1,4,5,6-tetrahydro-pyrrolo[3,4-b]pyrrol-2-yl]-4-methoxy-N-methyl-benzamide] yielded an IC50 [1] of 478 nM, an IC50 [2] of 0.9 nM and an IC50 [3] of 0.116 nM.
Compound CNC(=O)c1ccc(OC)c(-c2cc3c(n2C(C)C)[C@H](c2ccc(Cl)cc2C)N(c2cc(Cl)ccc2C)C3=O)c1 [Example 32, 3-[(S)-5-(5-Chloro-2-methyl-phenyl)-6-(4-chloro-2-methyl-phenyl)-1-isopropyl-4-oxo-1,4,5,6-tetrahydro-pyrrolo[3,4-b]pyrrol-2-yl]-4-methoxy-N-methyl-benzamide] has an IC50 [1] of 264 nM, an IC50 [2] of 0.5 nM and an IC50 [3] of 0.094 nM.
With COc1ncc(-c2cc3c(n2C2CC2)C(c2ccc(Cl)cc2)N(c2cc(C)c(=O)n(C)c2)C3=O)c(OC)n1 (stereo not shown) [Example 240, 6-(4-Chlorophenyl-1)-1-cyclopropyl-2-(2,4-dimethoxypyrimidin-5-yl)-5-(1,5-dimethyl-6-oxo-1,6-dihydropyridin-3-yl)-5,6-dihydropyrrolo[3,4-b]pyrrol-4(1H)-one] the IC50 [1] was 77600 nM and the IC50 [2] was 33.3 nM.
COc1ncc(-c2cc3c(n2C2CC2)C(c2ccc(Cl)cc2)N(c2cc(C)c(=O)n(C)c2)C3=O)cn1 (stereo not shown) [Example 241, 6-(4-Chlorophenyl)-1-cyclopropyl-5-(1,5-dimethyl-6-oxo-1,6-dihydropyridin-3-yl)-2-(2-methoxypyrimidin-5-yl)-5,6-dihydropyrrolo[3,4-b]pyrrol-4(1H)-one] gave an IC50 [1] of over 100000 nM and an IC50 [2] of 3920 nM.
Cc1cc(N2C(=O)c3cc(-c4ccn(C)c(=O)c4)n(C4CC4)c3C2c2ccc(Cl)cc2)cn(C)c1=O (stereo not shown) [Example 242, 6-(4-Chlorophenyl)-1-cyclopropyl-5-(1,5-dimethyl-6-oxo-1,6-dihydropyridin-3-yl)-2-(1-methyl-2-oxo-1,2-dihydropyridin-4-yl)-5,6-dihydropyrrolo[3,4-b]pyrrol-4(1H)-one] was tested, and the IC50 [1] was over 100000 nM and the IC50 [2] was 2040 nM.
